In patent US20050014735A1, “Treatment of Th2 dominated immunological disease states with progesterone receptor antagonists” (Solvay Pharmaceuticals GmbH, priority 2001, published 2005):

Assays:
[1] = tested on: peripheral blood mononuclear cells (PBMC); test: Th1 and Th2 cytokine profiles produced by mitogen-stimulated PBMC (ELISA), ex vivo; format: cell-based, human
Method: The effects of dydrogesterone on Th1 and Th2 cytokine profiles produced by mitogen-stimulated peripheral blood mononuclear cells (=PBMC) were determined. Several studies have pointed to a deviation of cytokine profiles in women when during pregnancy. Pregnancy is associated with a shift towards Th2 bias, evinced by changes in peripheral T cells, by cytokine production by peripheral lymphocytes and by cytokine changes at the maternal-fetal interface. Unexplained recurrent spontaneous abortion (URSA) seems to be associated with a stronger bias towards Th1 cytokines. Women who have earlier been gone through URSA may therefore be regarded as a pre-selected group of patients that will typically respond to an immunological stimulation by showing a Th1 dominated pattern of immune response. The pharmacological test was therefore performed with a suitable URSA group which comprised of women admitted with spontaneous abortion for evacuation, (i) who have had at least two previous unexplained miscarriages, (ii) who were currently undergoing at least a 3rd abortion and (iii) who had been fully investigated. The relationship between habitual abortion and cytokine production response in 54 women with normal pregnancy (and at least 3 previous normal pregnancies) and 23 women with a history of habitual abortion of unexplained aetiology (URSA group) has been investigated. Peripheral blood was obtained by venipuncture from the abortion group on the day of abortion. PBMC is separated by Ficoll-paque (Pharmacia Biotech, Sweden) density gradient centrifugation, suspended in RPMI medium (=“Roswell Park Memorial Institute”-medium; obtained from GIBCO/BRL, USA) containing 10% fetal calf serum, aliquoted into 96 well tissue culture plates at a density of 100.000 cells per well and then stimulated with the mitogen phytohemagglutinin (=PHA, Sigma Chemicals, USA) at a concentration of […] for a period of 96 hours, with autologous placental antigens or with trophoblast antigens. […] Progesterone was tested at concentrations of […]. RU486 was tested at equivalent concentrations. Culture supernatants were harvested at 96 hours for determination of the levels of cytokines secreted by the PBMC into the supernatants. Cytokine levels were determined in the supernatants by enzyme-linked immunosorbent assay (=ELISA). Each sample was tested in the following manner: • PBMC+mitogen • PBMC+mitogen+progesterone • PBMC+mitogen+progesterone+RU486 • PBMC+mitogen+dydrogesterone • PBMC+mitogen+dydrogesterone+RU486 • PBMC+mitogen+Carrier • PBMC+mitogen+Carrier+RU486 Th1 cytokines TNF-α and IFN-γ, and Th2 cytokines IL-4, IL-6 and IL-10 were evaluated in these samples by ELISA using kits that were obtained from Immunotech SA, France. These consisted of “sandwich ELISA”; briefly the first step leads to the capture of the relevant cytokine by monoclonal anti-cytokine antibodies bound to the wells of microtiter plates. In the second step, a second biotinylated monoclonal is added together with streptavidin-enzyme (peroxidase or alkaline phosphatase) conjugate. The biotinylated antibody binds to the solid phase antibody-antigen complex, and in turn, binds the conjugate. After incubation the wells are washed and the binding of the streptavidin-enzyme via biotin is followed by the addition of a chromogenic substrate. The intensity of the coloration produced is proportional to the concentration of the cytokine in the sample. Standard curves are plotted for each of the cytokines using reference recombinant cytokines and the results are read from these curves. The sensitivity of each of the assays is as follows: 5 pg/ml of TNF-α, 0.08 IU/ml of IFN-γ, 5 pg/ml of IL-4 and 5 pg/ml of IL-10. Results will be analysed by the t-test for independent samples.

Th1 cytokine production = conditions: in vitro, women with recurrent pregnancy loss; cited from earlier work
[2] = PBMC of women with spontaneous abortion and habitual abortion
[3] = PBMC supernatant, ELISA, 96 hours

Row | Compound | Th1/Th2 bias of cytokine profile [1, 2] | activity of lymphocytes [1, 2] | IFN-γ level [1, 3] | Interleukin 4 level [1, 3] | Interleukin 6 level [1, 3] | release of progesterone induced blocking factor (PIBF) ([1]; women with spontaneous abortion and habitual abortion) | embryotoxic Th1 cytokine production to trophoblast (Th1 cytokine production)
1 | CC(=O)[C@H]1CC[C@H]2[C@@H]3C=CC4=CC(=O)CC[C@@]4(C)[C@@H]3CC[C@]12C [dydrogesterone] | shift from a Th1 towards a Th2 bias | reduced | reduction | marked increase | marked increase | increased release | 
2 | CC(=O)[C@H]1CC[C@H]2[C@@H]3CCC4=CC(=O)CC[C@]4(C)[C@H]3CC[C@]12C [progesterone] |  |  |  |  |  |  | inhibits
